Target: PolQ ATPase enzyme (1-894) (Homo sapiens (Human), UniProt O75417)
Assay: Polθ ATPase enzymatic assay (0.5 nM enzyme concentration), ADP-Glo
Assay type: biochemical
Details: average IC50; 0.5 nM PolQ ATPase enzyme (1-894)
How it was run: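 Enzyme (0.5 nM) pre-incubated 15 min at rt with 10-point inhibitor series in 50 mM Tris pH 7.5, 10% glycerol, 5 mM DTT, 10 mM MgCl2, 0.1 mg/ml BSA; reaction started with 20 nM fork DNA and 100 μM ATP, run 180 min at rt. ADP-Glo luminescence; IC50 from 4-parameter variable-slope fit.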

PolQ ATPase enzyme (1-894), sequence (O75417 1-894): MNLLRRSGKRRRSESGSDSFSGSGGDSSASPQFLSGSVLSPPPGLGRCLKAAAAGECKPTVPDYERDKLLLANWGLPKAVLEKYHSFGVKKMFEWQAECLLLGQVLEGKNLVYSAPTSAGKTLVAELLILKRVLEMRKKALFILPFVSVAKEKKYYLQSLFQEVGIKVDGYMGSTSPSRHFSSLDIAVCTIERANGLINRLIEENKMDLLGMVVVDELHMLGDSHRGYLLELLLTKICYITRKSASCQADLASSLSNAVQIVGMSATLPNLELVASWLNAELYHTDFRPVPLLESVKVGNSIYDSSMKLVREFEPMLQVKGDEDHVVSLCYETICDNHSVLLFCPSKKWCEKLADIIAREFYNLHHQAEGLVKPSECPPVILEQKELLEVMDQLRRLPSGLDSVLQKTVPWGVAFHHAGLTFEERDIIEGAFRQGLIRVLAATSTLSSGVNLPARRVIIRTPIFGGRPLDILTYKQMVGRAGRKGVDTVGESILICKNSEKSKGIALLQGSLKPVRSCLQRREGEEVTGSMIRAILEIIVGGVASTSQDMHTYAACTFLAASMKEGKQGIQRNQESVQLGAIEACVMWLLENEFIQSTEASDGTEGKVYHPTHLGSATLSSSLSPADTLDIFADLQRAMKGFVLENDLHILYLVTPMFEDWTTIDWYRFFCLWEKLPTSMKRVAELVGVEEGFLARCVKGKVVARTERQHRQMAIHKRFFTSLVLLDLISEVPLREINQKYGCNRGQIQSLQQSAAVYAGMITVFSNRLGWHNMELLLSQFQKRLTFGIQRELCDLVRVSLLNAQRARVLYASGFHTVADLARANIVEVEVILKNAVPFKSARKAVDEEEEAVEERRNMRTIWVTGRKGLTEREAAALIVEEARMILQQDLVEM

SMILES | IC50 [nM]
COc1cnc(C(F)F)cc1-c1cc(Oc2ccn(C)n2)ncc1C(=O)Nc1nnc(C#CC2CC2)s1 [Compound 175] | 0.51
COc1cnc(Cl)cc1-c1cn2ncnc2cc1C(=O)Nc1nnc(C#CC2CC23CC3)s1 (centres unmarked) [Compound 64] | 1.9
COc1cnc(C(F)F)cc1-c1cc(-c2noc(C)n2)ncc1C(=O)Nc1nnc(C#CC2CC2)s1 [Compound 428] | < 0.25
CN(C)C(=O)Cn1cc(-c2cc(C(F)F)ccc2Cl)c(C(=O)Nc2nnc(C#CC3CC3)s2)cc1=O [Compound 317] | < 0.25
COc1cnc(C(F)F)cc1-c1cc(-c2ccn(C)n2)cnc1C(=O)Nc1nnc(C#CC2CC2)s1 [Compound 156] | 1.1
COc1cnc(C(F)F)cc1-c1cc(-c2cnn(C3CCOCC3)c2)ncc1C(=O)Nc1nnc(C#CC2CC2)s1 [Compound 355] | 0.3
COc1cnc(C(F)F)cc1-c1cc(-c2cn(C)nc2F)ncc1C(=O)Nc1nnc(C#CC2CC2)s1 [Compound 416] | 0.69
COc1cnc(C(F)F)cc1-c1cc(-n2ccnc2)ncc1C(=O)Nc1nnc(C#CC2CC2)s1 [Compound 262] | 0.29
COc1cnc(C(F)F)cc1-c1cc(N2CCN(C(C)=O)CC2)ccc1C(=O)Nc1nnc(C#CC2CC2)s1 [Compound 366] | 3
CN(C)C(=O)Cn1cc(-c2cc(F)ccc2Cl)c(C(=O)Nc2nnc(C#CC3CC3)s2)cc1=O [Compound 66] | 0.6
COc1cnc(C(F)F)cc1-c1cc(-n2c(F)cccc2=O)ncc1C(=O)Nc1nnc(C#CC2CC2)s1 [Compound 461] | < 0.25
COc1cnc(C(F)F)cc1-c1cc(N2C(=O)CCC2=O)ccc1C(=O)Nc1nnc(C#CC2CC2)s1 [Compound 216] | 1.5
COc1cnc(C(F)F)cc1-c1cc(N2CCC(C)(O)CC2)ncc1C(=O)Nc1nnc(C#CC2CC2)s1 [Compound 121] | 2
COc1cnc(C(F)F)cc1-c1cc(-n2ccc(C(F)(F)F)cc2=O)ncc1C(=O)Nc1nnc(C#CC2CC2)s1 [Compound 445] | < 0.25
COc1cnc(Cl)cc1-c1cn(Cc2nccs2)c(=O)cc1C(=O)Nc1nnc(C#CC2CC2)s1 [Compound 333] | 3.8
COc1cnc(C(F)F)cc1-c1cc(N2CCNCC2=O)ccc1C(=O)Nc1nnc(C#CC2CC2)s1 [Compound 143] | < 0.25
COc1cnc(C(F)F)cc1-c1cc(CC(=O)N2CC(F)(F)C2)ncc1C(=O)Nc1nnc(C#CC2CC2)s1 [Compound 446] | < 0.25
COc1cnc(C(F)F)cc1-c1cc(-c2nnc(NC(C)=O)o2)ccc1C(=O)Nc1nnc(C#CC2CC2)s1 [Compound 418] | 1.6
COc1cnn(-c2cc(-c3cc(C(F)F)ncc3OC)c(C(=O)Nc3nnc(C#CC4CC4)s3)cn2)c(=O)c1 [Compound 420] | 0.31
COc1cnc(C(F)F)cc1-c1cc(N2CCOC3(CC3)C2=O)ncc1C(=O)Nc1nnc(C#CC2CC2)s1 [Compound 158] | < 0.25
COc1cnc(C(F)F)cc1-c1cc(N2CCn3cncc3C2=O)ncc1C(=O)Nc1nnc(C#CC2CC2)s1 [Compound 356] | < 0.25

SMILES | IC50 [nM]
COc1cnc(Cl)cc1-c1cnccc1C(=O)Nc1nnc(C2CC2c2ccc(OC(F)F)cc2)s1 (centres unmarked) [Compound 62] | 0.36
COc1cnc(C(F)F)cc1-c1cc(C2=CCOCC2)ncc1C(=O)Nc1nnc(C#CC2CC2)s1 [Compound 284] | 5.6
COc1ccc(C(F)(F)F)cc1-c1cn2ncnc2cc1C(=O)Nc1nnc(C#Cc2cc(C)[nH]n2)s1 [Compound 86] | 1.6
COc1cnc(Cl)cc1-c1cc(C#CC2(O)CCS(=O)(=O)CC2)ccc1C(=O)Nc1nnc(C#CC2CC2)s1 [Compound 288] | < 0.25
COc1cnc(C(F)F)cc1-c1cc(-n2cnc(C)c(C)c2=O)ncc1C(=O)Nc1nnc(C#CC2CC2)s1 [Compound 451] | < 0.25
COc1cnc(C(F)F)cc1-c1cc(C[S+](C)[O-])ccc1C(=O)Nc1nnc(C#CC2CC2)s1 (centres unmarked) [Compound 260] | 2
COc1cnc(C(F)F)cc1-c1cc(-n2ncccc2=O)ncc1C(=O)Nc1nnc(C#CC2CC2)s1 [Compound 421] | < 0.25
COc1cnc(C(F)F)cc1-c1cc(N(C)C(=O)C2(C)CC2)ccc1C(=O)Nc1nnc(C#CC2CC2)s1 [Compound 221] | 0.98
COc1cnc(C(F)F)cc1-c1cc(N2CCOCC2=O)ncc1C(=O)Nc1nnc(C#CC2CC2)s1 [Compound 110, N-(5-(cyclopropylethynyl)-1,3,4-thiadiazol-2-yl)-2′-(difluoromethyl)-5′-methoxy-6-(3-oxomorpholino)-[4,4′-bipyridine]-3-carboxamide] | < 0.25
COc1cnc(C(F)F)cc1-c1cc(N2CCN(CC3CC3)CC2=O)ncc1C(=O)Nc1nnc(C#CC2CC2)s1 [Compound 386] | < 0.25
COc1cnc(C(F)F)cc1-c1cc(-c2cnc(C)o2)ncc1C(=O)Nc1nnc(C#CC2CC2)s1 [Compound 410] | 0.31
COc1ccc(C(F)(F)F)cc1-c1cc(C#CC2CCCOC2)ncc1C(=O)Nc1nnc(C#CC2CC2)s1 (centres unmarked) [Compound 249] | 0.77
COc1cnc(C(F)F)cc1-c1cc(CN2CCN(C)C2=O)ccc1C(=O)Nc1nnc(C#CC2CC2)s1 [Compound 231] | 1.6
C#CC1CC1c1nnc(NC(=O)c2ccc(N3CCOCC3=O)cc2-c2cc(C(F)F)ncc2OC)s1 (centres unmarked) [Compound 397] | 0.39
COc1cnc(C(F)F)cc1-c1cc(N2CCC3(CCC3)CC2=O)ncc1C(=O)Nc1nnc(C#CC2CC2)s1 [Compound 395] | 0.25
COc1cnc(C(F)F)cc1-c1cc(N2CC(C)CCC2=O)ncc1C(=O)Nc1nnc(C#CC2CC2)s1 (centres unmarked) [Compound 389] | < 0.25
Cc1cc(C#Cc2nnc(NC(=O)c3ccncc3-c3cc(F)ccc3Cl)s2)n[nH]1 [Compound 29] | 0.6
COc1cnc(C(F)F)cc1-c1cc(N2CCN(C)C3(CC3)C2=O)ncc1C(=O)Nc1nnc(C#CC2CC2)s1 [Compound 432, N-(5-(cyclopropylethynyl)-1,3,4-thiadiazol-2-yl)-2′-(difluoromethyl)-5′-methoxy-6-(4-methyl-8-oxo-4,7-diazaspiro[2.5]octan-7-yl)-[4,4′-bipyridine]-3-carboxamide] | < 0.25
COc1cnc(C(F)(F)F)cc1-c1cn(C)c(=O)cc1C(=O)Nc1nnc(C#CC2CC2)s1 [Compound 59] | 1.89
COc1cnc(C(F)F)cc1-c1cc(N2CCO[C@H](C)C2=O)ncc1C(=O)Nc1nnc(C#CC2CC2)s1 [Compound 173] | 0.41
Cc1ccc(Cl)cc1-c1cnccc1C(=O)Nc1nnc(C#CC2CC2)s1 [Compound 43] | < 0.25

SMILES | IC50 [nM]
COc1cnc(C(F)F)cc1-c1cc(C2CCN(C)C2=O)ccc1C(=O)Nc1nnc(C#CC2CC2)s1 (centres unmarked) [Compound 282] | 0.26
COc1cnc(C(F)F)cc1-c1cc(C2C[C@H]2C(=O)N(C)C)ccc1C(=O)Nc1nnc(C#CC2CC2)s1 (some centres unmarked) [Compound 363] | < 0.25
COc1cnc(C(F)F)cc1-c1cc(OCC2CCOCC2)ncc1C(=O)Nc1nnc(C#CC2CC2)s1 [Compound 150, N-(5-(cyclopropylethynyl)-1,3,4-thiadiazol-2-yl)-2′-(difluoromethyl)-5′-methoxy-6-((tetrahydro-2H-pyran-4-yl)methoxy)-[4,4′-bipyridine]-3-carboxamide] | < 0.25
Cc1cnc(C(F)F)cc1-c1cnccc1C(=O)Nc1nnc(C#CC2CC2)s1 [Compound 279] | 1.5
COc1cnc(C(F)F)cc1-c1cc(N2CC3CC(C3)C2=O)ncc1C(=O)Nc1nnc(C#CC2CC2)s1 [Compound 381] | < 0.25
COc1cnc(Cl)cc1-c1cn(CC(N)=O)c(=O)cc1C(=O)Nc1nnc(C#CC2CC2)s1 [Compound 105] | 0.47
COc1cnc(Cl)cc1-c1cc(-c2cccnn2)ccc1C(=O)Nc1nnc(C#CC2CC2)s1 [Compound 45] | 2.2
COc1cnc(C(F)F)cc1-c1cc(C(=O)N(C)C)ccc1C(=O)Nc1ncc(C#CC2CC2)s1 [Compound 257] | 26
COc1cnc(Cl)cc1-c1cnccc1C(=O)Nc1nnc(C2C[C@H]2c2ccc(C#N)cc2OC)s1 (some centres unmarked) [Compound 304] | 13
COc1cnc(C(F)F)cc1-c1cc(-c2ccn(C)n2)ncc1C(=O)Nc1nnc(C#CC2CC2)s1 [Compound 113, N-(5-(cyclopropylethynyl)-1,3,4-thiadiazol-2-yl)-2′-(difluoromethyl)-5′-methoxy-6-(1-methyl-1H-pyrazol-3-yl)-[4,4′-bipyridine]-3-carboxamide] | 0.53
COc1cnc(C(F)F)cc1-c1cc(-n2nc3c(cc2=O)CCC3)ncc1C(=O)Nc1nnc(C#CC2CC2)s1 [Compound 462] | < 0.25
COc1ncc(Cl)cc1-c1cnccc1C(=O)Nc1nnc(C#CC2CC2)s1 [Compound 344] | 4.3
CNc1ccc(C(=O)Nc2nnc(C#CC3CC3)s2)c(-c2cc(C(F)F)ncc2OC)c1 [Compound 243] | 15
COc1ccc(C(F)(F)F)cc1-c1cc(C2CCN(C)C2=O)ncc1C(=O)Nc1nnc(C#CC2CC2)s1 (centres unmarked) [Compound 297] | 0.69
COc1ccc(C(F)F)cc1-c1cnccc1C(=O)Nc1nnc(C#CC2CC23CC3)s1 (centres unmarked) [Compound 55] | < 0.25
[2H]C([2H])([2H])N(C(C)=O)c1ccc(C(=O)Nc2nnc(C#CC3CC3)s2)c(-c2cc(C(F)F)ncc2OC)c1 [Compound 232] | < 0.25
COc1cnc(Cl)cc1-c1cc(-c2cc[nH]n2)ccc1C(=O)Nc1nnc(C#CC2CC2)s1 [Compound 46] | 0.2
COc1cnc(C(F)F)cc1-c1cc(CC(=O)N2CC(C)(O)C2)ccc1C(=O)Nc1nnc(C#CC2CC2)s1 [Compound 206] | < 0.25
CN(C)C(=O)Cn1cc(-c2cc(C(F)(F)F)ccc2Cl)c(C(=O)Nc2nnc(C#CC3CC3)s2)cc1=O [Compound 34, 5-(2-chloro-5-(trifluoromethyl)phenyl)-N-(5-(cyclopropylethynyl)-1,3,4-thiadiazol-2-yl)-1-(2-(dimethylamino)-2-oxoethyl)-2-oxo-1,2-dihydropyridine-4-carboxamide] | 0.29
COc1cnc(C(F)F)cc1-c1cc(-c2oc(C)nc2C)ncc1C(=O)Nc1nnc(C#CC2CC2)s1 [Compound 409] | < 0.25

Reference: patent US20250026748A1, “N-(5-SUBSTITUTED-[(1,3,4-THIADIAZOLYL) OR (THIAZOLYL)])(SUBSTITUTED)CARBOXAMIDE COMPOUNDS AND USE THEREOF FOR INHIBITING HUMAN POLYMERASE THETA” (Repare Therapeutics Inc., priority 2021, published 2025)
